# Experimental data from ChEMBL document CHEMBL4266060, “Structure-Property Relationship Studies of Influenza A Virus AM2-S31N Proton Channel Blockers” (ACS Med Chem Lett, 2018).
# System: Matrix protein 2 (Influenza A virus (A/Udorn/307/1972(H3N2))), P0DOF8 [S31N]
# Test: Inhibition of Influenza A virus AM2 S31N mutant expressed in xenopus laevis frog oocytes assessed as inhibition of channel current at 100 uM after 2 mins by two-electrode voltage clamp assay relative to control
# Format: cell-based
row,SMILES,inhibition
1,OC12CC3CC(C1)CC(NCc1cnc(Br)s1)(C3)C2,33.5%
2,COc1ccc(-c2ccc(CNC34CC5CC(CC(O)(C5)C3)C4)s2)cc1OC,37.6%
3,COc1ccc(-c2ccc(CNC34CC5CC(CC(O)(C5)C3)C4)s2)cn1,68.3%
4,c1csc(-c2ccc(CNC34CC5CC(CC(C5)C3)C4)s2)c1,86.1%
5,OC12CC3CC(C1)CC(NCc1ccc(-c4ccccc4)s1)(C3)C2,84.6%
6,OC12CC3CC(C1)CC(NCc1nc(Br)cs1)(C3)C2,36%
7,COC(=O)c1ccc(-c2ccc(CNC34CC5CC(CC(O)(C5)C3)C4)s2)cc1,64.3%
8,CSc1ccccc1-c1ccc(CNC23CC4CC(CC(O)(C4)C2)C3)s1,73.4%
9,Brc1ccc(CNC23CC4CC(CC(C4)C2)C3)[se]1,70.6%
10,OC12CC3CC(C1)CC(NCc1ccc(I)s1)(C3)C2,75.6%
11,OC12CC3CC(C1)CC(NCc1ccc(-c4ccccc4Cl)s1)(C3)C2,78.7%
12,COc1ncc(-c2ccc(CNC34CC5CC(CC(O)(C5)C3)C4)s2)cn1,4.4%
13,OC12CC3CC(C1)CC(NCc1csc(Br)c1)(C3)C2,48.3%
14,Ic1ccc(CNC23CC4CC(CC(C4)C2)C3)s1,78.5%
15,OC12CC3CC(C1)CC(NCc1cc(Br)cs1)(C3)C2,56.6%
16,OC12CC3CC(C1)CC(NCc1ccc(Br)s1)(C3)C2,64.7%
17,OC12CC3CC(C1)CC(NCc1ccc(-c4ccc(F)cc4F)s1)(C3)C2,74.5%
18,Brc1ccc(CNC23CCC4CC(CC(C4)C2)C3)s1,72.6%
